# Test results as given in publication PMC6718453 (Frontiers in Aging Neuroscience, 2019).
# Target: acetylcholinesterase (AChE)
smiles,measurement,value
O=C(/C=C/C=C/c1ccc2c(c1)OCO2)N1CCCCC1 [piperine],IC50 ± SEM,76.6 ± 0.08 µg/mL
